Read-outs that look alike come from different tables or passages of the source.
Assays:
HCV NS5B = target: T1, HCV NS5B (Hepatitis C virus genotype 1b, UniProt Q9WMX2); experiment: Modified HCV NS5B RdRp enzyme assay (preincubation protocol); assay type: biochemical
T1 construct: The cDNA encoding the NS5B protein of HCV, genotype 1b; made in house; host or cells: E. coli BL21(DE3)
Protocol: HCV NS5B RdRp cloning, expression, and purification. The cDNA encoding the NS5B protein of HCV, genotype 1b, was cloned into the pET21a expression vector. The protein was expressed with an 18 amino acid C-terminal truncation to enhance the solubility. The E. coli competent cell line BL21(DE3) was used for expression of the protein. Cultures were grown at 37° C. for ˜4 hours until the cultures reached an optical density of 2.0 at 600 nm. The cultures were cooled to 20° C. and induced with 1 mM IPTG. Fresh ampicillin was added to a final concentration of 50 μg/ml and the cells were grown overnight at 20° C.
Cell pellets (3L) were lysed for purification to yield 15-24 mgs of purified NS5B. The lysis buffer consisted of 20 mM Tris-HCl, pH 7.4, 500 mM NaCl, 0.5% triton X-100, 1 mM DTT, 1 mM EDTA, 20% glycerol, 0.5 mg/ml lysozyme, 10 mM MgCl2, 15 ug/ml deoxyribonuclease I, and Complete™ protease inhibitor tablets (Roche). After addition of the lysis buffer, frozen cell pellets were resuspended using a tissue homogenizer. To reduce the viscosity of the sample, aliquots of the lysate were sonicated on ice using a microtip attached to a Branson sonicator. The sonicated lysate was centrifuged at 100,000×g for 1 hr at 4° C. and filtered through a 0.2 μm filter unit (Corning).
The protein was purified using two sequential chromatography steps: Heparin sepharose CL-6B and polyU sepharose 4B (Pharmacia). The chromatography buffers were identical to the lysis buffer but contained no lysozyme, deoxyribonuclease I, MgCl2 or protease inhibitor and the NaCl concentration of the buffer was adjusted according to the requirements for charging the protein onto the column. Each column was eluted with a NaCl gradient which varied in length from 5-50 column volumes depending on the column type. After the final chromatography step, the resulting purity of the enzyme is >90% based on SDS-PAGE analysis. The enzyme was aliquoted and stored at −80° C.
Standard HCV NS5B RdRp enzyme assay. HCV RdRp genotype 1b assays were run in a final volume of 60 μl in 96 well plates (Corning 3600). The assay buffer is composed of 20 mM Hepes, pH 7.5, 2.5 mM KCl, 2.5 mM MgCl2, 1 mM DTT, 1.6 U RNAse inhibitor (Promega N2515), 0.01 mg/ml BSA (Sigma B6917), and 2% glycerol. All compounds were serially diluted (3-fold) in DMSO and diluted further in water such that the final concentration of DMSO in the assay was 2%. HCV RdRp genotype 1b enzyme was used at a final concentration of 28 nM. A polyA template was used at 6 nM, and a biotinylated oligo-dT12 primer was used at 180 nM final concentration. Template was obtained commercially (Amersham 27-4110). Biotinylated primer was prepared by Sigma Genosys. 3H-UTP was used at 0.6 μCi (0.29 μM total UTP). Reactions were initiated by the addition of enzyme, incubated at 30° C. for 60 min, and stopped by adding 25 μl of 50 mM EDTA containing SPA beads (4 μg/μl, Amersham RPNQ 0007). Plates were read on a Packard Top Count NXT after >1 hr incubation at room temperature.
Modified HCV NS5B RdRp enzyme assay. A modified enzyme assay was performed essentially as described for the standard enzyme assay except for the following: The biotinylated oligo dT12 primer was precaptured on streptavidin-coated SPA beads by mixing primer and beads in assay buffer and incubating at room temperature for one hour. Unbound primer was removed after centrifugation. The primer-bound beads were resuspended in 20 mM Hepes buffer, pH 7.5 and used in the assay at final concentrations of 20 nM primer and 0.67 μg/μl beads. Order of addition in the assay: enzyme (1.75 nM) was added to diluted compound followed by the addition of a mixture of template (0.36 nM), 3H-UTP (0.6 μCi, 0.29 μM), and primer-bound beads, to initiate the reaction; concentrations given are final. Reactions were allowed to proceed for 4 hours at 30° C.
IC50 values for compounds were determined using seven different [I]. […]

HCV replicon cells = experiment: HCV replicon FRET assay; assay type: cell-based
Protocol: FRET Assay Preparation. The HCV FRET screening assay was performed in 96-well cell culture plates. The FRET peptide (Anaspec, Inc.) (Taliani et al., Anal. Biochem. 1996, 240, 60-67) contains a fluorescence donor, EDANS, near one end of the peptide and an acceptor, DABCYL, near the other end. The fluorescence of the peptide is quenched by […] resonance energy transfer (RET) between the donor and the acceptor, but as the NS3 protease cleaves the peptide the products are released from RET quenching and the fluorescence of the donor becomes apparent. The assay reagent was made as follows: 5× cell Luciferase cell culture lysis reagent from Promega (#E153A) diluted to 1× with dH2O, NaCl added to 150 mM final, the FRET peptide diluted to 20 μM final from a 2 mM stock.
To prepare plates, HCV replicon cells, with or without a Renilla luciferase reporter gene, were trypsinized and plated in a 96-well plate with titrated test compounds added in columns 3 through 12; columns 1 and 2 contained a control compound (HCV control inhibitor), and the bottom row contained cells with DMSO only. The plates were then placed in a CO2 incubator at 37° C.
Assays. Subsequent to addition of the test compounds described above (FRET Assay Preparation), at various times the plate was removed and Alamar blue solution (Trek Diagnostics, #00-100) was added to measure cellular toxicity. After reading in a Cytoflour 4000 instrument (PE Biosystems), plates were rinsed with PBS and then used for FRET assay by the addition of 30 ul of the FRET peptide assay reagent described above (FRET Assay Preparation) per well. The plate was then placed into the Cytoflour 4000 instrument which had been set to 340 excite/490 emission, automatic mode for up to 20 cycles and the plate read in a kinetic mode. Typically, the signal to noise using an endpoint analysis after the reads was at least three-fold. Alternatively, after Alamar blue reading, plates were rinsed with PBS, then used for luciferase assay using the Promega Dual-Glo Luciferase Assay System or the Promega EnduRen Live Cell Substrate assay.
Compound analysis was performed by quantification of the relative HCV replicon inhibition and the relative cytotoxicity values. To calculate cytoxicity values, the average Alamar Blue fluorescence signals from the control wells were set as 100% non-toxic. The individual signals in each of the compound test wells were then divided by the average control signal and multiplied by 100% to determine […]. To calculate the HCV replicon inhibition values, an average background value was obtained from the two wells containing the highest amount of HCV control inhibitor at the end of the assay period. These numbers were similar to those obtained from naïve Huh-7 cells. The background numbers were then subtracted from the average signal obtained from the control wells and this number was used as 100% activity. The individual signals in each of the compound test wells were then divided by the averaged control values after background subtraction and multiplied by 100% to determine percent activity. EC50 values were calculated as the concentration which caused a 50% reduction in FRET or luciferase activity. The two numbers generated for the compound plate, percent cytoxicity and percent activity, were used to determine compounds of interest for further analysis.

T1 sequence (Q9WMX2 2420-2992): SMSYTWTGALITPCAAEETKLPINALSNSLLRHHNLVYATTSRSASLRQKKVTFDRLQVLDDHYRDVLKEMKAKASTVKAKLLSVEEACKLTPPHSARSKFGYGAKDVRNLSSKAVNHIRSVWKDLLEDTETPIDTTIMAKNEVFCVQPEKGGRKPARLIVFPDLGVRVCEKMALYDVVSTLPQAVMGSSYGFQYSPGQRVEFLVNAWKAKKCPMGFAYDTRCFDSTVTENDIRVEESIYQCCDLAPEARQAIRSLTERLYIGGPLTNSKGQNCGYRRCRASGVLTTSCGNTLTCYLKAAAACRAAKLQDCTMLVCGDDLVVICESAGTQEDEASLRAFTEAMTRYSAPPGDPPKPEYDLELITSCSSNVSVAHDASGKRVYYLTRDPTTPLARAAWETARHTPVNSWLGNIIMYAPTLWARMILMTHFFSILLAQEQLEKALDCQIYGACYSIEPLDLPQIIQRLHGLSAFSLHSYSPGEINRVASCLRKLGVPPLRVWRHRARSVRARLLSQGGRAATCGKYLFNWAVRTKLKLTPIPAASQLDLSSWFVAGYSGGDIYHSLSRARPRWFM

| SMILES | IC50 (HCV NS5B) [nM] | EC50 (HCV replicon cells; Hepatitis C virus) [nM] | IC50 (HCV NS5B; preincubation protocol) [nM] | EC50 (HCV replicon cells; FRET assay) [nM] | IC50 (HCV NS5B; preincubation protocol, read-out: IC50) [nM] |
| --- | --- | --- | --- | --- | --- |
| COc1ccc2c(c1)C1CC1(C(=O)N1C3CCC1CC(O)(C(C)(C)C)C3)Cn1c-2c(C2CCCCC2)c2ccc(C(=O)NS(=O)(=O)N(C)C)cc21 (stereo not drawn) | 4.58 to 500 | 4.58 to 500 | – | – | – |
| CCC(C)S(=O)(=O)NC(=O)c1ccc2c(C3CCCCC3)c3n(c2c1)CC1(C(=O)N2C4CCC2CC(NC)C4)CC1c1cc(OC)ccc1-3 (stereo not drawn) | 4.58 to 500 | 4.58 to 500 | – | – | – |
| COc1ccc2c(c1)C1CC1(C(=O)N1C3CCC1CC(=O)C3)Cn1c-2c(C2CCCCC2)c2ccc(C(=O)NS(=O)(=O)N(C)C)cc21 (stereo not drawn) | 4.58 to 500 | 4.58 to 500 | – | – | – |
| CCC(C)S(=O)(=O)NC(=O)c1ccc2c(C3CCCCC3)c3n(c2c1)CC1(C(=O)N2C4CCC[C@@H]2COC4)CC1c1cc(OC)ccc1-3 (stereo partly drawn) | 4.58 to 500 | 4.58 to 500 | – | – | – |
| CNC1CC2CCC(C1)N2C(=O)C12CC1c1cc(OC)ccc1-c1c(C3CCCCC3)c3ccc(C(=O)NS(=O)(=O)N(C)C)cc3n1C2 (stereo not drawn) [drawing 28] | 4.58 to 500 | 4.58 to 500 | – | – | – |
| COc1ccc2c(c1)C1CC1(C(=O)N1C3CCC1CC(N(CCN(C)C)Cc1ccccc1)C3)Cn1c-2c(C2CCCCC2)c2ccc(C(=O)NS(=O)(=O)N3CCC3)cc21 (stereo not drawn) | 4.58 to 500 | 4.58 to 500 | – | – | – |
| COc1ccc2c(c1)C1CC1(C(=O)N1C3CCC1CC(O)(C(F)(F)F)C3)Cn1c-2c(C2CCCCC2)c2ccc(C(=O)NS(=O)(=O)N(C)C)cc21 (stereo not drawn) | 4.58 to 500 | 4.58 to 500 | – | – | – |
| COc1ccc2c(c1)C1CC1(C(=O)N1C3CCC1CC(NCC1CC1)C3)Cn1c-2c(C2CCCCC2)c2ccc(C(=O)NS(=O)(=O)N(C)C)cc21 (stereo not drawn) [drawing 23] | 4.58 to 500 | 4.58 to 500 | – | – | – |
| COc1ccc2c(c1)C1CC1(C(=O)N1C3CCC1CC(NCCN(C)C)C3)Cn1c-2c(C2CCCCC2)c2ccc(C(=O)NS(=O)(=O)N(C)C)cc21 (stereo not drawn) | 4.58 to 500 | 4.58 to 500 | – | – | – |
| COc1ccc2c(c1)C1CC1(C(=O)N1C3CCC1CC(C)(O)C3)Cn1c-2c(C2CCCCC2)c2ccc(C(=O)NS(=O)(=O)N3CCC3)cc21 (stereo not drawn) | 4.58 to 500 | 4.58 to 500 | – | – | – |
| COc1ccc2c(c1)C1CC1(C(=O)N1C3CCC[C@@H]1COC3)Cn1c-2c(C2CCCCC2)c2ccc(C(=O)NS(=O)(=O)CC(C)C)cc21 (stereo partly drawn) | 4.58 to 500 | 4.58 to 500 | – | – | – |
| COc1ccc2c(c1)C1CC1(C(=O)N1C3COCC1COC3)Cn1c-2c(C2CCCCC2)c2ccc(C(=O)NS(=O)(=O)CC(F)(F)F)cc21 (stereo not drawn) | 4.58 to 500 | 4.58 to 500 | – | – | – |
| COc1ccc2c(c1)C1CC1(C(=O)N1C3CCC1CC(O)C3)Cn1c-2c(C2CCCCC2)c2ccc(C(=O)NS(=O)(=O)N(C)C)cc21 (stereo not drawn) | 4.58 to 500 | 4.58 to 500 | – | – | – |
| COc1ccc2c(c1)C1CC1(C(=O)N1C3CCC[C@@H]1COC3)Cn1c-2c(C2CCCCC2)c2ccc(C(=O)NS(=O)(=O)C3CCCC3)cc21 (stereo partly drawn) | 4.58 to 500 | 4.58 to 500 | – | – | – |
| COc1ccc2c(c1)C1CC1(C(=O)N1C3CCC1CC(=O)C3)Cn1c-2c(C2CCCCC2)c2ccc(C(=O)NS(=O)(=O)C(C)C)cc21 (stereo not drawn) | 4.58 to 500 | 4.58 to 500 | – | – | – |
| COc1ccc2c(c1)C1CC1(C(=O)N1C3CCC1CC(N(CCN(C)C)Cc1ccccc1)C3)Cn1c-2c(C2CCCCC2)c2ccc(C(=O)NS(C)(=O)=O)cc21 (stereo not drawn) | 4.58 to 500 | 4.58 to 500 | – | – | – |
| COc1ccc2c(c1)C1CC1(C(=O)N1C3CCC1CC(N(CCN(C)C)Cc1ccccc1)C3)Cn1c-2c(C2CCCCC2)c2ccc(C(=O)NS(=O)(=O)C3CC3)cc21 (stereo not drawn) | 4.58 to 500 | 4.58 to 500 | – | – | – |
| COc1ccc2c(c1)C1CC1(C(=O)N1C3CCCC1COC3)Cn1c-2c(C2CCCCC2)c2ccc(C(=O)NS(=O)(=O)C3CCCCC3)cc21 (stereo not drawn) [drawing 54] | – | – | 4.58 to 500 | 4.58 to 500 | – |
| COc1ccc2c(c1)[C@@H]1C[C@]1(C(=O)N1C3CCC(O)C1CCC3O)Cn1c-2c(C2CCCCC2)c2ccc(C(=O)NS(=O)(=O)N(C)C)cc21 (stereo partly drawn) | 4.58 to 500 | 4.58 to 500 | – | – | – |
| COc1ccc2c(c1)C1CC1(C(=O)N1C3CCC1CC(C)(O)C3)Cn1c-2c(C2CCCCC2)c2ccc(C(=O)NS(=O)(=O)C(C)C)cc21 (stereo not drawn) | 4.58 to 500 | 4.58 to 500 | – | – | – |
| COc1ccc2c(c1)C1CC1(C(=O)N1C3CCC1CC(N(C)Cc1ccccc1)C3)Cn1c-2c(C2CCCCC2)c2ccc(C(=O)NS(=O)(=O)C(C)C)cc21 (stereo not drawn) [drawing 55] | – | – | 4.58 to 500 | 4.58 to 500 | – |
| COc1ccc2c(c1)C1CC1(C(=O)N1CC3CCC(C1)O3)Cn1c-2c(C2CCCCC2)c2ccc(C(=O)NS(=O)(=O)N(C)C)cc21 (stereo not drawn) | – | 4.58 to 500 | – | – | 4.58 to 500 |
| COc1ccc2c(c1)C1CC1(C(=O)N1C3CCC1CC(=O)C3)Cn1c-2c(C2CCCCC2)c2ccc(C(=O)NS(C)(=O)=O)cc21 (stereo not drawn) | 4.58 to 500 | 4.58 to 500 | – | – | – |
| COc1ccc2c(c1)C1CC1(C(=O)N1C3CCC1CC(NCc1ccccc1)C3)Cn1c-2c(C2CCCCC2)c2ccc(C(=O)NS(=O)(=O)C(C)C)cc21 (stereo not drawn) | 4.58 to 500 | 4.58 to 500 | – | – | – |

Source: patent US7541353B2, “Compounds for the treatment of hepatitis C” (Bristol-Myers Squibb Company, priority 2007, dated 2009)
